Experimental data taken from PubChem BioAssay AID248 (DTP/NCI, 2004).
“And” between values parts separate entries of the source, which are not always exact repeats. Equal values may be shown once. Toxic doses and inconclusive results are not listed. No stated cut-off is given here; in the data, active means T/C of 150% or more; inactive means T/C below 125%.

Tested on: L1210 leukemia ip in BDF1 mice, survival T/C
Assay: NCI In Vivo Anticancer Drug Screen. Data for tumor model L1210 Leukemia (intraperitoneal) in B6D2F1 (BDF1) mice
Settings: endpoint: mean survival time, higher = longer survival
Summary of the method: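 Survival endpoint. Drug-treated group vs vehicle group, expressed as T divided by C. Tumor passaged by transplantation.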

[1] = dose: 100.0 mg/kg/injection, schedule: Q04DX002 (ip), vehicle: saline
[2] = dose: 200.0 mg/kg/injection, schedule: Q04DX002 (ip), vehicle: saline
[3] = dose: 100.0 mg/kg/injection, schedule: Q04DX003 (ip), vehicle: saline
[4] = dose: 100.0 mg/kg/injection, schedule: Q01DX009 (ip), vehicle: saline with Tween-80
[5] = dose: 200.0 mg/kg/injection, schedule: Q01DX009 (ip), vehicle: saline with Tween-80
[6] = dose: 400.0 mg/kg/injection, schedule: Q01DX009 (ip), vehicle: saline with Tween-80
[7] = dose: 100.0 mg/kg/injection, schedule: Q01DX009 (ip), vehicle: Klucel (hydroxypropylcellulose) (HPC)
[8] = dose: 200.0 mg/kg/injection, schedule: Q01DX009 (ip), vehicle: Klucel (hydroxypropylcellulose) (HPC)

Measured: T/C

CSc1ccc(NC(=O)c2cccc([N+](=O)[O-])c2C(=O)O)cc1
inactive: [1] 106 % of control | [2] 110 % of control | dose: 400.0 mg/kg/injection, schedule: Q04DX002 (ip), vehicle: saline 106 % of control

CCCCCCCCCCSCCCCCCCCSCCCCCCCCCC
inactive: dose: 100.0 mg/kg/injection, schedule: Q01DX001 (ip), vehicle: Klucel (hydroxypropylcellulose) (HPC) 94 % of control | dose: 200.0 mg/kg/injection, schedule: Q01DX001 (ip), vehicle: Klucel (hydroxypropylcellulose) (HPC) 87 % of control | dose: 400.0 mg/kg/injection, schedule: Q01DX001 (ip), vehicle: Klucel (hydroxypropylcellulose) (HPC) 96 % of control

Nc1cc2[nH]cnc2c(Br)n1
inactive: dose: 100.0 mg/kg/injection, schedule: Q04DX003 (ip), vehicle: water 116 % of control | dose: 200.0 mg/kg/injection, schedule: Q04DX003 (ip), vehicle: water 116 % of control | dose: 400.0 mg/kg/injection, schedule: Q04DX003 (ip), vehicle: water 102 % of control

O=C1C=C(c2ccccc2)C(c2ccccc2)=C1
inactive: dose: 50.0 mg/kg/injection, schedule: Q01DX001 (ip), vehicle: carboxymethylcellulose (CMC) 101 % of control | dose: 100.0 mg/kg/injection, schedule: Q01DX001 (ip), vehicle: carboxymethylcellulose (CMC) 95 % of control | dose: 200.0 mg/kg/injection, schedule: Q01DX001 (ip), vehicle: carboxymethylcellulose (CMC) 92 % of control | dose: 400.0 mg/kg/injection, schedule: Q01DX001 (ip), vehicle: carboxymethylcellulose (CMC) 103 % of control

CCCCn1cnc(=O)c2[nH]cnc21
inactive: dose: 3.12 mg/kg/injection, schedule: Q01DX009 (ip), vehicle: saline 90 % of control | dose: 6.25 mg/kg/injection, schedule: Q01DX009 (ip), vehicle: saline 94 % of control | dose: 12.5 mg/kg/injection, schedule: Q01DX009 (ip), vehicle: saline 95 % of control | dose: 25.0 mg/kg/injection, schedule: Q01DX001 (ip), vehicle: saline 98 % of control | dose: 25.0 mg/kg/injection, schedule: Q04DX003 (ip), vehicle: saline 96 % of control | dose: 50.0 mg/kg/injection, schedule: Q01DX001 (ip), vehicle: saline 96 % of control | dose: 50.0 mg/kg/injection, schedule: Q01DX009 (ip), vehicle: saline 97 % of control | dose: 50.0 mg/kg/injection, schedule: Q04DX003 (ip), vehicle: saline 105 % of control | dose: 100.0 mg/kg/injection, schedule: Q01DX001 (ip), vehicle: saline 100 % of control | dose: 100.0 mg/kg/injection, schedule: Q01DX009 (ip), vehicle: saline 87 % of control | [3] 107 % of control

C=C(C)CSC#N
inactive: dose: 25.0 mg/kg/injection, schedule: Q01DX009 (ip), vehicle: saline with Tween-80 101 % of control | dose: 50.0 mg/kg/injection, schedule: Q01DX009 (ip), vehicle: saline with Tween-80 96 % of control | [4] 101 % of control

CCCCCCCCCCCC(=O)NC(=O)N1CCOCC1
inactive: dose: 100.0 mg/kg/injection, schedule: Q01DX001 (ip), vehicle: saline with Tween-80 101 % of control | [4] 97 % of control | dose: 200.0 mg/kg/injection, schedule: Q01DX001 (ip), vehicle: saline with Tween-80 101 % of control | [5] 98 % of control | dose: 400.0 mg/kg/injection, schedule: Q01DX001 (ip), vehicle: saline with Tween-80 94 % of control | [6] 93 % of control

Cc1ccc(NC(=O)Nc2ccccc2F)cc1Cl
inactive: [7] 111 % of control | [8] 97 % of control | dose: 400.0 mg/kg/injection, schedule: Q01DX009 (ip), vehicle: Klucel (hydroxypropylcellulose) (HPC) 92 % of control

Cn1nc(NN)c2cccnc21
inactive: dose: 75.0 mg/kg/injection, schedule: Q01DX001 (ip), vehicle: other 103 % of control | dose: 150.0 mg/kg/injection, schedule: Q01DX001 (ip), vehicle: other 104 % of control

O=C(CC[n+]1ccccc1)NCCCCCCNC(=O)CC[n+]1ccccc1
inactive: dose: 5.0 mg/kg/injection, schedule: Q01DX001 (ip), vehicle: saline 107 % of control

O=C(OC12CCCCC1CCCC2)c1ccc([N+](=O)[O-])cc1 (stereo unspecified)
inactive: dose: 100.0 mg/kg/injection, schedule: Q04DX003 (ip), vehicle: Klucel (hydroxypropylcellulose) (HPC) 96 % of control | [5] 90 % of control | dose: 200.0 mg/kg/injection, schedule: Q04DX003 (ip), vehicle: Klucel (hydroxypropylcellulose) (HPC) 101 % of control | dose: 400.0 mg/kg/injection, schedule: Q04DX003 (ip), vehicle: Klucel (hydroxypropylcellulose) (HPC) 96 % of control

CCOC(=O)C(=O)C1CCNC1=O (stereo unspecified)
inactive: dose: 12.5 mg/kg/injection, schedule: Q04DX003 (ip), vehicle: saline with Tween-80 92 % of control | dose: 25.0 mg/kg/injection, schedule: Q04DX003 (ip), vehicle: saline with Tween-80 95 % of control | dose: 50.0 mg/kg/injection, schedule: Q04DX003 (ip), vehicle: saline with Tween-80 97 % of control

CSc1ccc(NC(=O)Oc2cc3ccccc3cc2C(=O)Nc2ccc(Cl)cc2)cc1
inactive: [4] 99 % of control and 86 % of control | dose: 100.0 mg/kg/injection, schedule: Q04DX002 (ip), vehicle: saline with Tween-80 88 % of control | dose: 100.0 mg/kg/injection, schedule: Q04DX003 (ip), vehicle: saline with Tween-80 90 % of control | [5] 111 % of control and 89 % of control | dose: 200.0 mg/kg/injection, schedule: Q04DX002 (ip), vehicle: saline with Tween-80 91 % of control and 92 % of control | dose: 200.0 mg/kg/injection, schedule: Q04DX003 (ip), vehicle: saline with Tween-80 92 % of control | [6] 95 % of control and 96 % of control | dose: 400.0 mg/kg/injection, schedule: Q04DX002 (ip), vehicle: saline with Tween-80 94 % of control and 103 % of control | dose: 400.0 mg/kg/injection, schedule: Q04DX003 (ip), vehicle: saline with Tween-80 87 % of control

O=C(Nc1ccc([N+](=O)[O-])cc1Cl)c1cc(Cl)ccc1O
inactive: dose: 50.0 mg/kg/injection, schedule: Q01DX009 (ip), vehicle: Klucel (hydroxypropylcellulose) (HPC) 101 % of control | [7] 104 % of control | dose: 100.0 mg/kg/injection, schedule: Q04DX002 (ip), vehicle: Klucel (hydroxypropylcellulose) (HPC) 91 % of control | [8] 101 % of control | dose: 200.0 mg/kg/injection, schedule: Q04DX002 (ip), vehicle: Klucel (hydroxypropylcellulose) (HPC) 94 % of control

Cc1cc(N(CCOS(C)(=O)=O)CCOS(C)(=O)=O)ccc1C=Nc1ccc(-c2nc(Cc3ccccc3)sc2C)cc1
inactive: dose: 12.5 mg/kg/injection, schedule: Q01DX009 (ip), vehicle: Klucel (hydroxypropylcellulose) (HPC) 115 % of control | dose: 66.0 mg/kg/injection, schedule: Q04DX003 (ip), vehicle: Klucel (hydroxypropylcellulose) (HPC) 115 % of control

C[N+]1(C)N=C([O-])C=C1c1ccccc1
inactive: [3] 111 % of control | dose: 200.0 mg/kg/injection, schedule: Q04DX003 (ip), vehicle: saline 104 % of control | dose: 400.0 mg/kg/injection, schedule: Q04DX003 (ip), vehicle: saline 102 % of control

Cc1cc(C)nc(NCCCCC(N)C(=O)O)n1 (stereo unspecified)
inactive: dose: 50.0 mg/kg/injection, schedule: Q04DX002 (ip), vehicle: saline 104 % of control | [1] 104 % of control | [2] 101 % of control

COC(=O)/C=C/Sc1ccccc1C(=O)OC
inactive: dose: 50.0 mg/kg/injection, schedule: Q04DX003 (ip), vehicle: other 104 % of control | dose: 100.0 mg/kg/injection, schedule: Q04DX003 (ip), vehicle: other 87 % of control | dose: 200.0 mg/kg/injection, schedule: Q04DX003 (ip), vehicle: other 95 % of control
